Measured values taken from publication PMC8343220, “The selectivity of α‐adrenoceptor agonists for the human α1A, α1B, and α1D‐adrenoceptors” (Pharmacology Research & Perspectives, 2021).
Read-outs that look alike come from different tables or passages of the source.

Experiments:
[1] = system: parental CHO cell line without any transfected receptors; test: ERK1/2‐phosphorylation, parent CHO cells without transfected receptors; assay type: cell-based, Chinese hamster; conditions: CHO cells without transfected receptors; for ERK1/2-phosphorylation % PDBu: maximal response as % of PDBu (10μM) response
[2] = system: parental CHO cell line without any transfected receptors; test: Forskolin‐stimulated cAMP accumulation, parent CHO cells without transfected receptors; assay type: cell-based, Chinese hamster
[3] = target: T1, human α1D‐adrenoceptor (full length) (Homo sapiens, UniProt P25100); test: Intracellular free calcium mobilization, CHO‐α1D cells; assay type: cell-based
T1 construct: human α1D‐adrenoceptor (full length) were used; expressed in transfected cells; host or cells: CHO-K1
T1 sequence (P25100 1-572): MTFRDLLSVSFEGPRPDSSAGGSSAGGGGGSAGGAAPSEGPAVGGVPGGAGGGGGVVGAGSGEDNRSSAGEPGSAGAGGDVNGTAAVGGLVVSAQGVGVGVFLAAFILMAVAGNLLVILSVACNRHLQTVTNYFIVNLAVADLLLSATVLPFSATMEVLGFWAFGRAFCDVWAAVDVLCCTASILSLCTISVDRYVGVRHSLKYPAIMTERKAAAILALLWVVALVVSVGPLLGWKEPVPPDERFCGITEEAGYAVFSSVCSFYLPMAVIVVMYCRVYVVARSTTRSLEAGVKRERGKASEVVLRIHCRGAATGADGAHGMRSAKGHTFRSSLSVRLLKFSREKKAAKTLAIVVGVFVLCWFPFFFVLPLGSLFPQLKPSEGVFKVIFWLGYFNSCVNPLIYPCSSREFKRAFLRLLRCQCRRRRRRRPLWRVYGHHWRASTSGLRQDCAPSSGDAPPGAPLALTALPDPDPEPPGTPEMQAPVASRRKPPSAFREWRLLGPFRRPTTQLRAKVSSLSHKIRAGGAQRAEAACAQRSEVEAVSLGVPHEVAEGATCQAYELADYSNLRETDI

[4] = target: T1, human α1D‐adrenoceptor (full length); test: ^3H‐prazosin whole‐cell radioligand binding, CHO‐α1D cells
[5] = target: T2, human α1B‐adrenoceptor (Homo sapiens, UniProt P35368); test: ^3H‐prazosin whole‐cell radioligand binding, CHO‐α1B cells; conditions: CHO‐α1B cells
T2 construct: expressed in transfected cells; host or cells: CHO-K1
T2 sequence (P35368 1-520): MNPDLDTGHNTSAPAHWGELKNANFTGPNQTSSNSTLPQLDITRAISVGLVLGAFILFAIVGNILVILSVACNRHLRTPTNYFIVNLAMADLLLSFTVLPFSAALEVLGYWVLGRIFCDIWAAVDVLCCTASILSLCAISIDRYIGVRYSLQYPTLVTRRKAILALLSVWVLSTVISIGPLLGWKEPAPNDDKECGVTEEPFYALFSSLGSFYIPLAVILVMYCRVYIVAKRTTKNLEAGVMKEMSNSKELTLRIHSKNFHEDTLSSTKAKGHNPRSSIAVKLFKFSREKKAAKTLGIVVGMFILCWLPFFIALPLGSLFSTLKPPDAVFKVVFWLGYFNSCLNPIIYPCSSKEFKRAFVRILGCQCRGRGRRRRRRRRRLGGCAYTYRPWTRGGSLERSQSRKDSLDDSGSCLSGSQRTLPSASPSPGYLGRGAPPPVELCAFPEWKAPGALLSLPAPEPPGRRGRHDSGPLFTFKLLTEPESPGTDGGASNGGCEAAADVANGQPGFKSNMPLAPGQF

[6] = target: T2, human α1B‐adrenoceptor; test: ERK1/2‐phosphorylation (Surefire Alphascreen), CHO‐α1B cells; assay type: cell-based; conditions: for ERK1/2‐phosphorylation % PDBu: maximal response as % PDBu response
[7] = target: T3, human α1A‐adrenoceptor (Homo sapiens, UniProt P35348); test: Intracellular free calcium mobilization, CHO‐α1A cells; assay type: cell-based
T3 construct: expressed in transfected cells; host or cells: CHO-K1
T3 sequence (P35348 1-466): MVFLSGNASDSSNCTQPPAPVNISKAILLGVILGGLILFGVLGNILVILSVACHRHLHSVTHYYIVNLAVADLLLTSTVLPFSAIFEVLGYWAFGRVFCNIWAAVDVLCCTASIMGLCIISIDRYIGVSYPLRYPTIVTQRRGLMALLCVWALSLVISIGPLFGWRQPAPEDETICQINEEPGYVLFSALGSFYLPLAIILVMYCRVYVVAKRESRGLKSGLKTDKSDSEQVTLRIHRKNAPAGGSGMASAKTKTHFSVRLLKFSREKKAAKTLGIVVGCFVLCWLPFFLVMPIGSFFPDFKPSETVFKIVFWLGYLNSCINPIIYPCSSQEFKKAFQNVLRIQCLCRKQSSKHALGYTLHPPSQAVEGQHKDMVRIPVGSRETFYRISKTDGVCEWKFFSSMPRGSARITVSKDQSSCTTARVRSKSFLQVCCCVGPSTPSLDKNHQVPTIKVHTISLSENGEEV

[8] = target: T1, human α1D‐adrenoceptor (full length); test: ERK1/2‐phosphorylation (Surefire Alphascreen), CHO‐α1D cells; assay type: cell-based
[9] = target: T3, human α1A‐adrenoceptor; test: ERK1/2‐phosphorylation (Surefire Alphascreen), CHO‐α1A cells; assay type: cell-based
[10] = target: T2, human α1B‐adrenoceptor; test: Intracellular free calcium mobilization, CHO‐α1B cells; assay type: cell-based; conditions: CHO‐α1B cells; response at 100 µM ligand (no EC50 given), % of ionomycin response
[11] = target: T3, human α1A‐adrenoceptor; test: ^3H‐prazosin whole‐cell radioligand binding, CHO‐α1A cells
[12] = CHO‐α1B cells, for bi‐phasic responses the initial stimulatory part
[13] = CHO‐α1D cells, log values given negative
[14] = CHO‐α1D cells, given as log KD (negative), mean ± SEM, 'early plateau' = specific binding not fully inhibited

Nc1cc(Cl)c(N=C2NCCN2)c(Cl)c1 [Para-amino-clonidine]
ERK1/2-phosphorylation % PDBu ([1]; mean ± s.e.m.): No response | cAMP accumulation (in presence of forskolin) Log EC50 ([2]; CHO cells without transfected receptors, in presence of forskolin): No response

COc1ccc(CC(C)NCC(O)c2ccc(O)c(NC=O)c2)cc1 (stereo not shown) [Formoterol]
Intracellular calcium release Log EC50 [3]: No response | cAMP accumulation (in presence of forskolin) Log EC50 [2]: No response | Kd ([4]; 3H‐prazosin binding Log KD): 7.08 µM | Kd ([4]; Log KD α1D, ^3H‐prazosin whole cell binding): 7.08 µM

C1COC(NC(C2CC2)C2CC2)=N1 [Rilmenidine]
IC50 ([5]; printed as IC50> log value): > 100 µM | Intracellular calcium release % Ionomycin at 100 µM [3]: 12.0 ± 0.9% | ERK1/2-phosphorylation % PDBu ([1]; mean ± s.e.m.): No response | ERK1/2-phosphorylation Log EC50 ([1]; mean ± s.e.m.): No response | ERK1/2‐phosphorylation Log EC50 [6, 12]: No response | ERK1/2‐phosphorylation % PDBu [6, 12]: No response | Log efficacy ratio KD /EC50 ([7]; CHO‐α1A cells, binding KD and calcium EC50): 1.19 | EC50 ([7]; CHO‐α1A cells, given as log EC50 (negative), read-out: Intracellular calcium release Log EC50 (converted)): 2.09 µM | Intracellular calcium release % ionomycin ([7]; CHO‐α1A cells, maximal response as % of 10 µM ionomycin): 45.9 ± 3.8% | ERK1/2‐phosphorylation % PDBu [8]: No response | ERK1/2‐phosphorylation Log EC50 [8, 13]: No response | ERK1/2‐phosphorylation % PDBu at 10 µM ([9]; CHO‐α1A cells, response at 10 μM ligand, no EC50 obtained): 89.0 ± 3.9% | Intracellular calcium release % Ionomycin at 100 µM [10]: 20.0 ± 3.9% | Kd ([4]; 3H‐prazosin binding Log KD, CHO‐α1D cells, whole‐cell binding (from Table 1), log values given negative): 18.6 µM | Kd [4, 14]: 18.6 µM | Affinity selectivity ratio α1A vs α1D ([4]; higher affinity for α1D than α1A): 1.7 fold | Affinity selectivity ratio α1B vs α1D ([4]; higher affinity for α1D than α1B): >5.4 fold | Kd ([11]; Log KD α1A, ^3H‐prazosin whole cell binding, CHO‐α1A cells, given as log KD (negative), mean ± SEM): 32.4 µM | Affinity selectivity ratio α1A vs α1B ([11]; higher affinity for α1A than α1B): >3.1 fold

C=CCN1CCc2nc(N)sc2CC1 [BHT920]
Log KD, ^3H‐prazosin binding ([5]; whole‐cell binding (from Table 1), given as log KD (negative numbers)): −3.73 | Log KD α1B, ^3H‐prazosin whole cell binding ([5]; given as log KD (negative), mean ± SEM): −3.73 ± 0.04 | Intracellular calcium release Log EC50 [3, 13]: No response | Intracellular calcium release % ionomycin ([3]; CHO‐α1D cells, maximal response as % of 10 µM ionomycin): No response | ERK1/2-phosphorylation % PDBu at 100μM ([1]; response at 100μM only, EC50 not obtainable, % of PDBu (10μM)): 3.8 ± 1.8% | ERK1/2‐phosphorylation Log EC50 [6]: −5.31 ± 0.04 | ERK1/2‐phosphorylation % PDBu [6, 12]: 12.2 ± 3.6% | Intracellular calcium release % ionomycin [7]: 39.7 ± 3.3% | Intracellular calcium release Log EC50 [7]: −5.68 ± 0.09 | Log efficacy ratio KD /EC50 [7]: 0.98 | ERK1/2‐phosphorylation Log EC50 [8]: No response | ERK1/2‐phosphorylation % PDBu ([8]; CHO‐α1D cells, maximal response as % of PDBu): No response | ERK1/2‐phosphorylation % PDBu [9]: 61.4 ± 5.5% | ERK1/2‐phosphorylation Log EC50 [9]: −5.14 ± 0.05 | Intracellular calcium release % Ionomycin at 100 µM [10]: 16.3 ± 4.5% | Affinity selectivity ratio α1B vs α1D [4]: 5.8 fold | 3H‐prazosin binding Log KD ([4]; CHO‐α1D cells, whole‐cell binding (from Table 1), log values given negative): −4.49 | Log KD α1D, ^3H‐prazosin whole cell binding [4, 14]: −4.49 ± 0.07 | Affinity selectivity ratio α1A vs α1B [11]: 9.3 fold | Affinity selectivity ratio α1A vs α1D [11]: 1.6 fold | Log KD α1A, ^3H‐prazosin whole cell binding [11]: −4.70 ± 0.04
